Experimental data from patent US6953779B2, “Melanocortin receptor antagonists and modulations of melanocortin receptor activity” (The Regents of the University of California, priority 1998, dated 2005).
Square brackets hold non-standard residues; d marks the D form. Peptide text beside a SMILES is read from it. * marks the point of attachment. d2Nal = N[C@H](Cc1ccc2ccccc2c1)C(=O)O; Benzoyl(3-OMe) = COc1cccc(C(=O)*)c1; Benzoyl(4-OMe) = COc1ccc(C(=O)*)cc1; d2Thi = N[C@H](Cc1cccs1)C(=O)O

test system: heat-induced edema in the anesthetized rat's paw; experiment: Suppression of heat-induced edema in the anesthetized rat's paw (anti-inflammatory); type: in vivo; conditions: i.v.; suppression of heat-induced edema in the anesthetized rat's paw

SMILES	Anti-Inflammatory ED50
CC[C@H](C)[C@H](NC(=O)[C@@H](Cc1ccc2ccccc2c1)NC(=O)[C@H](CC(C)C)NC(=O)[C@H](CC(C)C)NC(=O)[C@H](CCCCN)NC(=O)[C@H](CCCNC(=N)N)NC(=O)c1ccc(OC)cc1)C(=O)N[C@H](CC(C)C)C(N)=O [S-114, p-anisoyl-Arg-Lys-Leu-Leu-D-Nal-Ile-D-Leu-NH2] ({Benzoyl(4-OMe)}-RKLL[d2Nal]I[dL]-NH2)	0.38 (0.16-0.91) mg/kg
CC[C@H](C)[C@H](NC(=O)[C@@H](Cc1ccc(O)cc1)NC(=O)[C@H](CC(C)C)NC(=O)[C@H](CC(C)C)NC(=O)[C@H](CCCCN)NC(=O)[C@H](CCCNC(=N)N)NC(=O)c1ccc(OC)cc1)C(=O)N[C@H](CC(C)C)C(N)=O [S-116, p-anisoyl-Arg-Lys-Leu-Leu-D-Tyr-Ile-D-Leu-NH2] ({Benzoyl(4-OMe)}-RKLL[dY]I[dL]-NH2)	0.080 (0.03-0.20) mg/kg
CC[C@H](C)[C@H](NC(=O)[C@@H](Cc1c[nH]c2ccccc12)NC(=O)[C@H](CC(C)C)NC(=O)[C@H](CC(C)C)NC(=O)[C@H](CCCCN)NC(=O)[C@H](CCCNC(=N)N)NC(=O)c1ccc(OC)cc1)C(=O)N[C@H](CC(C)C)C(N)=O [S-117, p-anisoyl-Arg-Lys-Leu-Leu-D-Trp-Ile-D-Leu-NH2] ({Benzoyl(4-OMe)}-RKLL[dW]I[dL]-NH2)	0.16 (0.050-0.40) mg/kg
CC[C@H](C)[C@H](NC(=O)[C@@H](Cc1cccs1)NC(=O)[C@H](CC(C)C)NC(=O)[C@H](CC(C)C)NC(=O)[C@H](CCCCN)NC(=O)[C@H](C)NC(=O)c1ccc(OC)cc1)C(=O)N[C@H](CC(C)C)C(N)=O [S-118, p-anisoyl-Ala-Lys-Leu-Leu-D-Thi-Ile-D-Leu-NH2] ({Benzoyl(4-OMe)}-AKLL[d2Thi]I[dL]-NH2)	0.035 (0.012-0.10) mg/kg
CC[C@H](C)[C@H](NC(=O)[C@@H](Cc1cccs1)NC(=O)[C@H](CC(C)C)NC(=O)[C@H](C)NC(=O)[C@H](CCCCN)NC(=O)[C@H](CCCNC(=N)N)NC(=O)c1ccc(OC)cc1)C(=O)N[C@H](CC(C)C)C(N)=O [S-160, p-anisoyl-Arg-Lys-Ala-Leu-D-Thi-Ile-D-Leu-NH2] ({Benzoyl(4-OMe)}-RKAL[d2Thi]I[dL]-NH2)	0.18 (0.07-0.49) mg/kg
CC[C@H](C)[C@H](NC(=O)[C@@H](Cc1cccs1)NC(=O)[C@H](CC(C)C)NC(=O)[C@H](CC(C)C)NC(=O)[C@H](CCCCN)NC(=O)[C@H](CCCNC(=N)N)NC(=O)c1ccc(OC)cc1)C(=O)N[C@H](C)C(N)=O [S-162, p-anisoyl-Arg-Lys-Leu-Leu-D-Thi-Ile-D-Ala-NH2] ({Benzoyl(4-OMe)}-RKLL[d2Thi]I[dA]-NH2)	0.24 (0.11-0.50) mg/kg
COc1ccc(C(=O)N[C@@H](CCCNC(=N)N)C(=O)N[C@@H](CCCCN)C(=O)N[C@@H](CC(C)C)C(=O)N[C@@H](CC(C)C)C(=O)N[C@H](Cc2cccs2)C(=O)N[C@@H](C)C(=O)N[C@H](CC(C)C)C(N)=O)cc1 [S-163, p-anisoyl-Arg-Lys-Leu-Leu-D-Thi-Ala-D-Leu-NH2] ({Benzoyl(4-OMe)}-RKLL[d2Thi]A[dL]-NH2)	0.067 (0.030-0.15) mg/kg
CC[C@H](C)[C@H](NC(=O)[C@@H](C)NC(=O)[C@H](CC(C)C)NC(=O)[C@H](CC(C)C)NC(=O)[C@H](CCCCN)NC(=O)[C@H](CCCNC(=N)N)NC(=O)c1ccc(OC)cc1)C(=O)N[C@H](CC(C)C)C(N)=O [S-164, p-anisoyl-Arg-Lys-Leu-Leu-D-Ala-Ile-D-Leu-NH2] ({Benzoyl(4-OMe)}-RKLL[dA]I[dL]-NH2)	0.42 (0.18-0.96) mg/kg
CC[C@H](C)[C@H](NC(=O)[C@@H](Cc1cccs1)NC(=O)[C@H](C)NC(=O)[C@H](CC(C)C)NC(=O)[C@H](CCCCN)NC(=O)[C@H](CCCNC(=N)N)NC(=O)c1ccc(OC)cc1)C(=O)N[C@H](CC(C)C)C(N)=O [S-165, p-anisoyl-Arg-Lys-Leu-Ala-D-Thi-Ile-D-Leu-NH2] ({Benzoyl(4-OMe)}-RKLA[d2Thi]I[dL]-NH2)	0.046 (0.015-0.14) mg/kg
CC[C@H](C)[C@H](NC(=O)[C@@H](Cc1cccs1)NC(=O)[C@H](CC(C)C)NC(=O)[C@H](CC(C)C)NC(=O)[C@H](C)NC(=O)[C@H](CCCNC(=N)N)NC(=O)c1ccc(OC)cc1)C(=O)N[C@H](CC(C)C)C(N)=O [S-166, p-anisoyl-Arg-Ala-Leu-Leu-D-Thi-Ile-D-Leu-NH2] ({Benzoyl(4-OMe)}-RALL[d2Thi]I[dL]-NH2)	>2 mg/kg
CC[C@H](C)[C@H](NC(=O)[C@@H](Cc1cccs1)NC(=O)[C@H](CC(C)C)NC(=O)[C@H](CC(C)C)NC(=O)[C@H](CCCCN)NC(=O)[C@H](C)NC(=O)c1ccc(OC)cc1)C(=O)N[C@H](CC(C)C)C(N)=O [S-167, p-anisoyl-Ala-Lys-Leu-Leu-D-Thi-Ile-D-Leu-NH2] ({Benzoyl(4-OMe)}-AKLL[d2Thi]I[dL]-NH2)	>2 mg/kg

same assay, conditions: in words

SMILES	anti-edema activity
CC[C@H](C)[C@H](NC(=O)[C@@H](CCCNC(=N)N)NC(=O)[C@@H](CCCNC(=N)N)NC(=O)c1ccc(OC)cc1)C(=O)N[C@H](CCCNC(=N)N)C(=O)N1CCC[C@H]1C(=O)N[C@H](CCCCN)C(=O)N[C@H](CC(C)C)C(N)=O [SQW-4, p-anisoyl-D-Arg-D-Arg-Ile-D-Arg-Pro-D-Lys-D-Leu-amide] ({Benzoyl(4-OMe)}-[dR][dR]I[dR]P[dK][dL]-NH2)	active as anti-edema agents
CC[C@H](C)[C@H](NC(=O)[C@H](CCCNC(=N)N)NC(=O)[C@@H](CCCNC(=N)N)NC(=O)c1ccc(OC)cc1)C(=O)N[C@H](CCCNC(=N)N)C(=O)N1CCC[C@H]1C(=O)N[C@H](CCCCN)C(=O)N[C@H](CC(C)C)C(N)=O [SQW-5, p-anisoyl-[D-Arg^6,9, D-Lys^11, D-Leu^12] dynorphin A(6-12)-NH2] ({Benzoyl(4-OMe)}-[dR]RI[dR]P[dK][dL]-NH2)	active as anti-edema agents
CC[C@H](C)[C@H](NC(=O)[C@H](CCCNC(=N)N)NC(=O)[C@H](CCCNC(=N)N)NC(=O)c1cccc(OC)c1)C(=O)N[C@@H](CCCNC(=N)N)C(=O)N1CCC[C@H]1C(=O)N[C@@H](CCCCN)C(=O)N[C@@H](CC(C)C)C(N)=O [SQW-6, m-anisoyl-Arg-Arg-Ile-Arg-Pro-Lys-Leu-amide] ({Benzoyl(3-OMe)}-RRIRPKL-NH2)	active as anti-edema agents

same assay, conditions: suppression of heat-induced edema in the anesthetized rat's paw; i

SMILES	Anti-Inflammatory ED50 [µmol/kg]
CC[C@H](C)[C@H](NC(=O)[C@H](CCCNC(=N)N)NC(=O)[C@H](CCCNC(=N)N)NC(=O)c1ccc(OC)cc1)C(=O)N[C@H](CCCNC(=N)N)C(=O)N1CCC[C@H]1C(=O)N[C@H](CCCCN)C(=O)N[C@H](CC(C)C)C(N)=O [SQW-2, p-anisoyl-Arg-Arg-Ile-D-Arg-Pro-D-Lys-D-Leu-amide] ({Benzoyl(4-OMe)}-RRI[dR]P[dK][dL]-NH2)	0.085
CC[C@H](C)[C@H](NC(=O)[C@@H](CCCNC(=N)N)NC(=O)[C@H](CCCNC(=N)N)NC(=O)c1ccc(OC)cc1)C(=O)N[C@H](CCCNC(=N)N)C(=O)N1CCC[C@H]1C(=O)N[C@H](CCCCN)C(=O)N[C@H](CC(C)C)C(N)=O [SQW-3, p-anisoyl-Arg-D-Arg-Ile-D-Arg-Pro-D-Lys-D-Leu-amide] ({Benzoyl(4-OMe)}-R[dR]I[dR]P[dK][dL]-NH2)	0.095
CC[C@H](C)[C@H](NC(=O)[C@@H](CCCNC(=N)N)NC(=O)[C@@H](CCCNC(=N)N)NC(=O)c1ccc(OC)cc1)C(=O)N[C@H](CCCNC(=N)N)C(=O)N1CCC[C@H]1C(=O)N[C@H](CCCCN)C(=O)N[C@H](CC(C)C)C(N)=O [SQW-4, p-anisoyl-D-Arg-D-Arg-Ile-D-Arg-Pro-D-Lys-D-Leu-amide] ({Benzoyl(4-OMe)}-[dR][dR]I[dR]P[dK][dL]-NH2)	0.200
CC[C@H](C)[C@H](NC(=O)[C@H](CCCNC(=N)N)NC(=O)[C@@H](CCCNC(=N)N)NC(=O)c1ccc(OC)cc1)C(=O)N[C@H](CCCNC(=N)N)C(=O)N1CCC[C@H]1C(=O)N[C@H](CCCCN)C(=O)N[C@H](CC(C)C)C(N)=O [SQW-5, p-anisoyl-[D-Arg^6,9, D-Lys^11, D-Leu^12] dynorphin A(6-12)-NH2] ({Benzoyl(4-OMe)}-[dR]RI[dR]P[dK][dL]-NH2)	0.060
CC[C@H](C)[C@H](NC(=O)[C@H](CCCNC(=N)N)NC(=O)[C@H](CCCNC(=N)N)NC(=O)c1cccc(OC)c1)C(=O)N[C@@H](CCCNC(=N)N)C(=O)N1CCC[C@H]1C(=O)N[C@@H](CCCCN)C(=O)N[C@@H](CC(C)C)C(N)=O [SQW-6, m-anisoyl-Arg-Arg-Ile-Arg-Pro-Lys-Leu-amide] ({Benzoyl(3-OMe)}-RRIRPKL-NH2)	0.51
CC[C@H](C)[C@H](NC(=O)[C@H](CCCNC(=N)N)NC(=O)[C@H](C)NC(=O)c1cccc(OC)c1)C(=O)N[C@@H](CCCNC(=N)N)C(=O)N1CCC[C@H]1C(=O)N[C@@H](CCCCN)C(=O)N[C@@H](CC(C)C)C(N)=O [SQW-7, m-anisoyl-Ala-Arg-Ile-Arg-Pro-Lys-Leu-amide] ({Benzoyl(3-OMe)}-ARIRPKL-NH2)	>1
CC[C@H](C)[C@H](NC(=O)[C@H](C)NC(=O)[C@H](CCCNC(=N)N)NC(=O)c1cccc(OC)c1)C(=O)N[C@@H](CCCNC(=N)N)C(=O)N1CCC[C@H]1C(=O)N[C@@H](CCCCN)C(=O)N[C@@H](CC(C)C)C(N)=O [SQW-8, m-anisoyl-Arg-Ala-Ile-Arg-Pro-Lys-Leu-amide] ({Benzoyl(3-OMe)}-RAIRPKL-NH2)	>1
COc1cccc(C(=O)N[C@@H](CCCNC(=N)N)C(=O)N[C@@H](CCCNC(=N)N)C(=O)N[C@@H](C)C(=O)N[C@@H](CCCNC(=N)N)C(=O)N2CCC[C@H]2C(=O)N[C@@H](CCCCN)C(=O)N[C@@H](CC(C)C)C(N)=O)c1 [SQW-9, m-anisoyl-Arg-Arg-Ala-Arg-Pro-Lys-Leu-amide] ({Benzoyl(3-OMe)}-RRARPKL-NH2)	0.65
CC[C@H](C)[C@H](NC(=O)[C@H](CCCNC(=N)N)NC(=O)[C@H](CCCNC(=N)N)NC(=O)c1cccc(OC)c1)C(=O)N[C@@H](C)C(=O)N1CCC[C@H]1C(=O)N[C@@H](CCCCN)C(=O)N[C@@H](CC(C)C)C(N)=O [SQW-10, m-anisoyl-Arg-Arg-Ile-Ala-Pro-Lys-Leu-amide] ({Benzoyl(3-OMe)}-RRIAPKL-NH2)	1.02
CC[C@H](C)[C@H](NC(=O)[C@H](CCCNC(=N)N)NC(=O)[C@H](CCCNC(=N)N)NC(=O)c1cccc(OC)c1)C(=O)N[C@@H](CCCNC(=N)N)C(=O)N[C@@H](C)C(=O)N[C@@H](CCCCN)C(=O)N[C@@H](CC(C)C)C(N)=O [SQW-11, m-anisoyl-Arg-Arg-Ile-Arg-Ala-Lys-Leu-amide] ({Benzoyl(3-OMe)}-RRIRAKL-NH2)	1.05
CC[C@H](C)[C@H](NC(=O)[C@H](CCCNC(=N)N)NC(=O)[C@H](CCCNC(=N)N)NC(=O)c1cccc(OC)c1)C(=O)N[C@@H](CCCNC(=N)N)C(=O)N1CCC[C@H]1C(=O)N[C@@H](C)C(=O)N[C@@H](CC(C)C)C(N)=O [SQW-12, m-anisoyl-Arg-Arg-Ile-Arg-Pro-Ala-Leu-amide] ({Benzoyl(3-OMe)}-RRIRPAL-NH2)	0.98
CC[C@H](C)[C@H](NC(=O)[C@H](CCCNC(=N)N)NC(=O)[C@H](CCCNC(=N)N)NC(=O)c1cccc(OC)c1)C(=O)N[C@@H](CCCNC(=N)N)C(=O)N1CCC[C@H]1C(=O)N[C@@H](CCCCN)C(=O)N[C@@H](C)C(N)=O [SQW-13, m-anisoyl-Arg-Arg-Ile-Arg-Pro-Lys-Ala-amide] ({Benzoyl(3-OMe)}-RRIRPKA-NH2)	2.39
